Data set [1] addresses T1, Protein fem-1 homolog B/Bromodomain-containing protein 4 (Homo sapiens, UniProt O60885+Q9UK73). Put plainly: PROTAC activity at FEM1B/BRD4 in HEK293T cells assessed as protein degradation. The format is cell-based.
Data set [2] deals with T1, Protein fem-1 homolog B/Bromodomain-containing protein 4. Kind of data set: PROTAC activity at FEM1B/BRD4 in HEK293T cells assessed as protein degradation relative to control. The data set is classed as cell-based.
Data set [3] has as its target Bromodomain-containing protein 4 (Homo sapiens, UniProt O60885). Kind of data set: Inhibition of BRD4 in HEK293T cells. The data set is classed as cell-based.
Data set [4] has as its system CWR22R. Kind of data set: Inhibition of cell growth in human 22Rv1 cells. The data set is classed as functional, cell-based.
The target of data set [5] is Cyclin-dependent kinase 9 (Homo sapiens, UniProt P50750). Put plainly: Induction of CDK9 degradation in human 22Rv1 cells. The format is cell-based.
Data set [6] has as its target Cyclin-T1 (Homo sapiens, UniProt O60563). Put plainly: Induction of Cyclin T1 degradation in human 22Rv1 cells. The data set is classed as cell-based.
Data set [7] concerns the target von Hippel-Lindau disease tumor suppressor/GTPase KRas (Homo sapiens, UniProt P01116+P40337, G12C). Put plainly: PROTAC activity at VHL/KRAS G12C mutant in human NCI-H2030 cells assessed as protein degradation incubated for 24 hrs by Western blot analysis. The format is cell-based. A general note: A western blot detects proteins with antibodies after separation by electrophoresis.

Data set [8] concerns the target Protein cereblon/Focal adhesion kinase 1 (Homo sapiens) (UniProt Q05397+Q96SW2). Put plainly: PROTAC activity at CRBN/FAK in human A549 cells assessed as protein degradation at 10 nM incubated for 12 hrs by Western blot analysis relative to control. The data set is classed as cell-based.
Data set [9] addresses Focal adhesion kinase 1 (Homo sapiens, UniProt Q05397). Kind of data set: Inhibition of FAK (unknown origin) incubated for 50 mins in presence of substrate/ATP by HTRF assay.
Data set [10] is described as follows: Stability in human plasma assessed as half life at 2 uM incubated for 120 mins by LC-MS/MS analysis. The format is ADME, cell-free.
In data set [11] the target is RAC-gamma serine/threonine-protein kinase (Homo sapiens, UniProt Q9Y243). Kind of data set: Inhibition of AKT3 (unknown origin).
Sequence of RAC-gamma serine/threonine-protein kinase (Q9Y243 whole entry): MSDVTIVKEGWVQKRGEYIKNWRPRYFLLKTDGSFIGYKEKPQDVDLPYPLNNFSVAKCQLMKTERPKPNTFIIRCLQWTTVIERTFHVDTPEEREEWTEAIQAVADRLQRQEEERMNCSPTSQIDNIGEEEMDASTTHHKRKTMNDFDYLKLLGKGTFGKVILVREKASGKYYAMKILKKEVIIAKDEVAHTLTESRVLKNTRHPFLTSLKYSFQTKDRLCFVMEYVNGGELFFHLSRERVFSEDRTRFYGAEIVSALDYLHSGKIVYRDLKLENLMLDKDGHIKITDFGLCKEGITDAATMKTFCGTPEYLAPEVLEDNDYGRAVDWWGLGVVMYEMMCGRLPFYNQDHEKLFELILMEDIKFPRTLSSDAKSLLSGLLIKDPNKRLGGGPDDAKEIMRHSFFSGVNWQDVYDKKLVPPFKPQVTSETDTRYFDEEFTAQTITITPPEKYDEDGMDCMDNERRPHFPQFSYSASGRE
Data set [12] addresses von Hippel-Lindau disease tumor suppressor/AKT (Homo sapiens, UniProt P31751+Q9Y243+P31749+P40337). Kind of data set: PROTAC activity at VHL/AKT in human SW620 cells assessed as protein degradation. The format is cell-based.
The target in data set [13] is RAC-alpha serine/threonine-protein kinase (Homo sapiens, UniProt P31749). Kind of data set: Inhibition of AKT1 (unknown origin).
Sequence of RAC-alpha serine/threonine-protein kinase (P31749 whole entry): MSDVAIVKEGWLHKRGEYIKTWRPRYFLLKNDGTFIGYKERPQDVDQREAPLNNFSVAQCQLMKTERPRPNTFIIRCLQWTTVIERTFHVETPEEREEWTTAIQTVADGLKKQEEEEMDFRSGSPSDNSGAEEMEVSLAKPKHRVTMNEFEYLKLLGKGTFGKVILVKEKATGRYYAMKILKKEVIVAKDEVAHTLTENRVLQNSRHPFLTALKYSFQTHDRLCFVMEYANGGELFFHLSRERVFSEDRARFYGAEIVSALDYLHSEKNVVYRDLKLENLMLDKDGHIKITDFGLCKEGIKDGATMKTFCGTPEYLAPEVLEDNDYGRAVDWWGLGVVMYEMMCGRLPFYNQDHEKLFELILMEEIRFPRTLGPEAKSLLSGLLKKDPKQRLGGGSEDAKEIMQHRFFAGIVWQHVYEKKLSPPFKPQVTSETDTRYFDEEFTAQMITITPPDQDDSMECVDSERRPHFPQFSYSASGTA
In data set [14] the test system is SW-620. Kind of data set: Inhibition of cell growth in human SW620 cells. The format is functional.
Data set [15] has as its target RAC-beta serine/threonine-protein kinase (Homo sapiens, UniProt P31751). Put plainly: Inhibition of AKT2 (unknown origin).
Data set [16] is described as follows: Inhibition of EGFR L858R/790M mutant in human NCI-H1975 cells. The data set is classed as cell-based.
Data set [17] deals with von Hippel-Lindau disease tumor suppressor/Epidermal growth factor receptor (Homo sapiens), P00533+P40337 [UNDEFINED MUTATION]. Put plainly: PROTAC activity at VHL/EGFR del19 mutant in human HCC827 cells assessed as protein degradation relative to control. The data set is classed as cell-based.
Sequence of von Hippel-Lindau disease tumor suppressor/Epidermal growth factor receptor (Homo sapiens), P00533+P40337 [UNDEFINED MUTATION] (P00533 whole entry, looked up, stated change not applied): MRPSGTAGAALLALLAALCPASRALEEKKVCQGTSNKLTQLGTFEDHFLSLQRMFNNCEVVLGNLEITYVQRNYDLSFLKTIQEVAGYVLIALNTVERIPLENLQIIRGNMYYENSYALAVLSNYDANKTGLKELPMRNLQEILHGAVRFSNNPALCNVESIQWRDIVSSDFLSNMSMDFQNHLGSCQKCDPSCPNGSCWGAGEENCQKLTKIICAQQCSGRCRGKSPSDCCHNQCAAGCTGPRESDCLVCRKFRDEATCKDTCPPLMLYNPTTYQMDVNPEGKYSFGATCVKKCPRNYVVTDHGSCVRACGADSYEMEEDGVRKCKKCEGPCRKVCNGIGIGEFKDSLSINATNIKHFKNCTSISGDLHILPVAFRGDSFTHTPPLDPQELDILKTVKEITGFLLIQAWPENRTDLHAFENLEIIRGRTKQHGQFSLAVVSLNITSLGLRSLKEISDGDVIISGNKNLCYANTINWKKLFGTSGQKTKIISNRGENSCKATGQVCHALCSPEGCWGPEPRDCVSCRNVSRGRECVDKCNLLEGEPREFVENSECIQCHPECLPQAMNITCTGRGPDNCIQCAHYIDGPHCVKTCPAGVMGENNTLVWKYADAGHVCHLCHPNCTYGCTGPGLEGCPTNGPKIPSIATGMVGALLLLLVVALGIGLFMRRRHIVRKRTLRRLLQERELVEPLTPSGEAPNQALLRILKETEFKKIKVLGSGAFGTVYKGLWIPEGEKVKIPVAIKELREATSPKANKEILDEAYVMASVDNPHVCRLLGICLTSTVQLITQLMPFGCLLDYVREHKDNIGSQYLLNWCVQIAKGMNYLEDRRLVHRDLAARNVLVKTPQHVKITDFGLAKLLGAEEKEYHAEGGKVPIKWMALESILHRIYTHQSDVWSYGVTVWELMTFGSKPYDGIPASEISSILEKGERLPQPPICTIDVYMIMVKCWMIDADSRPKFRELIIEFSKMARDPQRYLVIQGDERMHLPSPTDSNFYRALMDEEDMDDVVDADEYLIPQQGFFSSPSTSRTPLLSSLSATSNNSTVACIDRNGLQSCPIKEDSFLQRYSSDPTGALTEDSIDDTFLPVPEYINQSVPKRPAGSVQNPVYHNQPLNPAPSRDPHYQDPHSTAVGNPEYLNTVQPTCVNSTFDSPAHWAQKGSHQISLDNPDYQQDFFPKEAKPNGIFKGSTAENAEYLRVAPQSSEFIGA
Sequence of von Hippel-Lindau disease tumor suppressor/Epidermal growth factor receptor (Homo sapiens), P00533+P40337 [UNDEFINED MUTATION] (P40337 whole entry, looked up, stated change not applied): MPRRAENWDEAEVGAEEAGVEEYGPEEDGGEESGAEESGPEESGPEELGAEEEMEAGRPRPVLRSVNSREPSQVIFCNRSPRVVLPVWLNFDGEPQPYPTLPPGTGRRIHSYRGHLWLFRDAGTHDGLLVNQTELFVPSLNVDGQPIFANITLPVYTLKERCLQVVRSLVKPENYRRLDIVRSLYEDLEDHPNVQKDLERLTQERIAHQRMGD
In data set [18] the target is von Hippel-Lindau disease tumor suppressor/Epidermal growth factor receptor (Homo sapiens, UniProt P00533+P40337). Put plainly: PROTAC activity at VHL/EGFR del19 mutant in human HCC827 cells assessed as protein degradation. The data set is classed as cell-based.
Data set [19] is described as follows: Inhibition of EGFR del19 mutant in human HCC827 cells. The data set is classed as cell-based.
Data set [20] has as its target T2, Epidermal growth factor receptor (Homo sapiens, UniProt P00533). Kind of data set: Inhibition of wild-type EGFR in human A-431 cells. The format is cell-based.
Data set [21] concerns the target T2, Epidermal growth factor receptor. Kind of data set: Inhibition of wild-type EGFR in human A549 cells. The data set is classed as cell-based.

T2 sequence (P00533 whole entry): as the sequence (P00533 whole entry, looked up, stated change not applied) above
T1 sequence (Q9UK73 whole entry, looked up, other chains not shown): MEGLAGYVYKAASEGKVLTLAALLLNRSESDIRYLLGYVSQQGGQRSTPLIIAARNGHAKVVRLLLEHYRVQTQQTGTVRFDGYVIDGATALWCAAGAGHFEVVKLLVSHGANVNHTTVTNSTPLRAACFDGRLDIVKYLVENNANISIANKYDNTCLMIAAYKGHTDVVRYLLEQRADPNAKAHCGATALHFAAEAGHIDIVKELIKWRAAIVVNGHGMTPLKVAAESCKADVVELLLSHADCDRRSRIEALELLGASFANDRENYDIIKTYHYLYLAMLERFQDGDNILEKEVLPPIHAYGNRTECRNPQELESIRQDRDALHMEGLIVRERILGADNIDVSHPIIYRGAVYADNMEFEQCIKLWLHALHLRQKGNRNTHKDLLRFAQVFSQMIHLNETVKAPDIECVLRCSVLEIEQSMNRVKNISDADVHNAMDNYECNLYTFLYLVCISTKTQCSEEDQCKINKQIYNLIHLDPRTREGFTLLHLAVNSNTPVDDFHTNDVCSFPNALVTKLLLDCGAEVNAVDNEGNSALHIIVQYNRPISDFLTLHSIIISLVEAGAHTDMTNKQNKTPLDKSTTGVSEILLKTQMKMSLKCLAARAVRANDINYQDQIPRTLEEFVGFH
Sequence of von Hippel-Lindau disease tumor suppressor/AKT (P31751 whole entry): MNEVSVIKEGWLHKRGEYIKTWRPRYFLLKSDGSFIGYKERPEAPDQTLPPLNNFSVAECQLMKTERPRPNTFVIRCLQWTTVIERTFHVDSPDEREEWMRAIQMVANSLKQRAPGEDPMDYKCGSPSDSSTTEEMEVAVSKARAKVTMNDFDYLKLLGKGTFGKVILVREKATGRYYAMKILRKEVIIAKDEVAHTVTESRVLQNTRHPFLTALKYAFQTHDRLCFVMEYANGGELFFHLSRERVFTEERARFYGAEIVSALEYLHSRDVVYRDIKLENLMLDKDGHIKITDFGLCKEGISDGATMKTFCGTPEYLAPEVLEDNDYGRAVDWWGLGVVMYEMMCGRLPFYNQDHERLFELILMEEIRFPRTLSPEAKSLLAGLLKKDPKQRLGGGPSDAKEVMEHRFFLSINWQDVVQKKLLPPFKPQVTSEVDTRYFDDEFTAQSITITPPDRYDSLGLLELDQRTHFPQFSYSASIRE
Sequence of von Hippel-Lindau disease tumor suppressor/AKT (Q9Y243 whole entry): as the sequence (Q9Y243 whole entry) above
Sequence of von Hippel-Lindau disease tumor suppressor/AKT (P31749 whole entry): as the sequence (P31749 whole entry) above
Sequence of von Hippel-Lindau disease tumor suppressor/AKT (P40337 whole entry): as the sequence (P40337 whole entry, looked up, stated change not applied) above
Sequence of RAC-beta serine/threonine-protein kinase (P31751 whole entry): as the sequence (P31751 whole entry) above

As a reminder, the DC50 is the concentration at which degradation of the target reaches its halfway point. The IC50 is the midpoint of a concentration-inhibition curve. Turning to `Cc1sc2c(c1C)C(c1ccc(Cl)cc1)=N[C@H](CC(=O)NCCCCCNC(=O)CN1CCOc3cc(N(CCC#N)C(=O)CCl)ccc31)c1nnc(C)n1-2`, the DC50 in data set [1] came out at 250 nM. The Emax in data set [2] was 94%. The molecule also showed an IC50 in data set [3] of 1400 nM.
With `CC1CCC(C(C)C)C(OCC(=O)NCCS(=O)(=O)N2CCC(C(=O)Nc3ncc(SCc4ncc(C(C)(C)C)o4)s3)CC2)C1` (stereo unspecified), the IC50 in data set [4] came out at 95 nM. The results for the DC50 in data set [5] and in data set [6] were 62 nM and 589 nM, respectively.
`C=C(F)C(=O)N1CCN(c2nc(OC[C@@H]3CCCN3CCCOCCC(=O)N[C@H](C(=O)N3CC(O)C[C@H]3C(=O)NCc3ccc(-c4scnc4C)cc3)C(C)(C)C)nc3c2CCN(c2cccc4cccc(Cl)c24)C3)C[C@@H]1CC#N` (stereo partly specified): in data set [7], the DC50 came to 590 nM.
One may read the half-life as how long it takes for the measured level to halve. For the molecule `CN(c1ncccc1CNc1nc(Nc2ccc(N3CCN(CCCCCCC(=O)NCCNc4cccc5c4C(=O)N(C4CCC(=O)NC4=O)C5=O)CC3)cc2)ncc1C(F)(F)F)S(C)(=O)=O` (stereo unspecified), the Emax in [8] came to 85%. Further, in data set [9], the IC50 was 26.4 nM. Further, the half-life at 2 µM in data set [10] is more than 3.25 h.
Broadly, the GI50 is the concentration at which growth is held to half of that of the control. A higher GI50 goes with less potent growth inhibition. With `Cc1ncsc1-c1ccc(C(C)NC(=O)C2CC(O)CN2C(=O)C(NC(=O)CCCCCCCCCCNC(=O)CCc2cccc(-c3ccc4nc(-c5cccnc5N)n(-c5ccc(C6(N)CCC6)cc5)c4n3)c2)C(C)(C)C)cc1` (stereo unspecified), the IC50 in data set [11] came to 544 nM; in data set [13] it was 798 nM; in data set [15], 90 nM. Also, the DC50 in data set [12] came to 23 nM. In addition, it took 3100 nM to inhibit growth in [14] by half (GI50).
Regarding `Cc1ncsc1-c1ccc(CNC(=O)C2CC(O)CN2C(=O)C(NC(=O)CCCCCCCCCCn2cc(COc3cc4ncnc(Nc5ccc(F)c(Cl)c5)c4cc3NC(=O)/C=C/CN3CCCCC3)nn2)C(C)(C)C)cc1` (stereo unspecified), the half-inhibitory concentration (IC50) in data set [16] is more than 20000 nM; in [19], 6 nM; in [20] it was more than 20000 nM; in [21], more than 20000 nM. Further, the Emax in [17] was determined as 91%. Also, in data set [18], the DC50 stood at 3.57 nM.
